Values of other authors, collected in US20180169018A1, “Method for improving the dissolution profile of a biologically active material” (iCeutica Pty Ltd., priority 2009, published 2018).

Settings: absorption by the body

Cc1cnc(NC(=O)C2=C(O)c3ccccc3S(=O)(=O)N2C)s1 [Meloxicam, meloxicam]
Tmax: 4 to 5 h
